Test results: patent publication US12202805B2, “Process for preparing (5S)-{[2-(4-carboxyphenyl)ethyl] |2-(2-{|3-chloro-4'-(trifluoromethyl)biphenyl-4-yl]methoxy}phenyl)ethyl]aminol-5,6,7,8-tetrahydroquinoline-2-carboxylic acid and its crystalline forms for use as pharmaceutically active compound” (Bayer Aktiengesellschaft, priority 2021, dated 2025)
Like-named read-outs stand apart in the source and are kept apart here.

Assay: E-2.3 inhalative, oral and intravenous single doses in healthy male subjects: plasma concentrations and lung deposition
Type: in vivo, human
Conditions: for concentration at 0 h: 0 h after dose, heading: Geometric mean of plasma concentrations; for concentration at 0.25 h: 0.25 h after dose; for concentration at 0.5 h: 0.5 h after dose; for concentration at 0.75 h: 0.75 h after dose; for concentration at 1 h: 1 h after dose; for concentration at 1.5 h: 1.5 h after dose; for concentration at 2 h: 2 h after dose; for concentration at 2.5 h: 2.5 h after dose; for concentration at 3 h: 3 h after dose; for concentration at 4 h: 4 h after dose; for concentration at 6 h: 6 h after dose; for concentration at 8 h: 8 h after dose; for concentration at 12 h: 12 h after dose; for concentration at 15 h: 15 h after dose; for concentration at 24 h: 24 h after dose; for concentration at 28 h: 28 h after dose; for concentration at 32 h: 32 h after dose; for concentration at 36 h: 36 h after dose
Method: E-2.3 Inhalative, Oral and Intravenous Administration of Single Doses of sGC an Activator in Healthy Male Subjects—Lung Deposition
Healthy white male subjects, aged 18 to 45 years with a body mass index (BMI) above/equal 18.5 and below/equal 29.9 kg/m^2 were treated in a clinical phase I study with a single inhaled dose of 1000 μg (nominal dose), a single inhaled dose of 1000 μg (nominal dose)+charcoal block, a single oral dose of 1000 μg and a single infusion over 2 h of 100 μg of example 4. As the bioavailability of an intravenous application is generally 100% per definition and therefore higher than in case of an oral or […], the intravenous dose was carefully selected to be lower than the oral and inhaled dose to avoid higher plasma concentration resulting from a high IV dose and potential side effect, e.g. reduction in blood pressure or syncope. Therefore, 100 μg was selected for the IV dose in this investigation. Seven days washout period between treatments was applied. The subjects swallowed a solution for oral administration (20 ml comprising 1000 μg, see under C-2, table 26). The subjects received a solution as a single infusion over 2 hours (2 ml comprising 100 μg, see under C-2 table 26). The subjects inhaled the drug powder from capsules (see under C-1, tables 17 and 20) inserted into a handheld inhalation device by one deep inhalative breath. After inhalation of the dry powder formulation of this drug, some parts of the nominal dose remain in the capsule and the device, the dose which reaches the body at the mouthpiece is called the emitted dose. The emitted dose can be calculated/determined as followed: nominal dose−(remains in the capsule+remains in the device). After inhalation of the dry powder, one part of the emitted dose enters the gastrointestinal tract (GIT) and is called the oral part of the emitted dose, the other part of the emitted dose which reaches the lung through the respiratory airways is called the lung dose and represents the lung deposited dose. As the lung is the target organ of the effect, the lung deposited dose must be quantified. Lung deposition can be indirectly estimated, by determining the part of the nominal dose which reaches the GIT and the remains in the capsule and the device. To investigate and determine lung deposition, the following investigations were done (see also FIG. 59): • 1—Inhaled application of a single dose of 1000 μg of the dry powder. • 2—Inhaled application of a single dose of 1000 μg of the dry powder in combination with oral administration of charcoal block. The charcoal block capped the oral absorption of GIT part of the dose, as example 4 completely adsorbed to charcoal block. This implies that the concentrations of example 4 measured reach the systemic circulation via the lung. • 3—Administration of a single oral dose of […] example 4 to determine the oral absorption. • 4—Administration of a 2 h infusion of example 4 to investigate the elimination.

[1] = male, human, plasma, inhaled, 1000 μg, healthy male subjects, single 1000 μg inhale + Charcoal Block, N = 16, read-out: Geometric mean of plasma concentrations
[2] = male, human, plasma, inhaled, 1000 μg, healthy male subjects, single 1000 μg inhale, N = 16, read-out: Geometric mean of plasma concentrations
[3] = male, human, plasma, iv, 100 μg, healthy male subjects, 100 μg IV infusion over 2 h, N = 15, read-out: Geometric mean of plasma concentrations
[4] = male, human, plasma, po, 1000 μg, healthy male subjects, single 1000 μg oral, N = 16, read-out: Geometric mean of plasma concentrations

O=C(O)c1ccc(CCN(CCc2ccccc2OCc2ccc(-c3ccc(C(F)(F)F)cc3)cc2Cl)[C@H]2CCCc3nc(C(=O)O)ccc32)cc1 [example 4, (5S)—{[2-(4-Carboxyphenyl)ethyl][2-(2-{[3-chloro-4′-(trifluoromethyl)biphenyl-4-yl]methoxy}phenyl)-ethyl]amino}-5,6,7,8-tetrahydroquinoline-2-carboxylic acid as Monohydrate I]
emitted dose (after inhalation of 1000 μg in humans): 720 µg
oral part of the dose (inhaled 1000 μg): approximately 13 % of the nominal dose
lung dose (part of nominal dose that reached the lung) (inhaled dry powder): 16.3 % of the nominal dose
total part of the dry powder reaching the body (inhaled dry powder): 18.8 % of the nominal dose
concentration at 0 h (male, human, plasma, inhaled, 1000 μg, healthy male subjects, single 1000 μg inhale + Charcoal Block, N = 16): < 0.05 ng/mL
concentration at 0.25 h [1]: 0.0583 ng/mL
concentration at 0.5 h [1]: 0.261 ng/mL
concentration at 0.75 h [1]: 0.491 ng/mL
concentration at 1 h [1]: 0.662 ng/mL
concentration at 1.5 h [1]: 0.9 ng/mL
concentration at 2 h [1]: 0.969 ng/mL
concentration at 2.5 h [1]: 1.02 ng/mL
concentration at 3 h [1]: 0.933 ng/mL
concentration at 4 h [1]: 0.812 ng/mL
concentration at 6 h [1]: 0.508 ng/mL
concentration at 8 h [1]: 0.373 ng/mL
concentration at 12 h [1]: 0.22 ng/mL
concentration at 15 h [1]: 0.157 ng/mL
concentration at 24 h [1]: 0.0931 ng/mL
concentration at 28 h [1]: 0.0761 ng/mL
concentration at 32 h [1]: 0.0696 ng/mL
concentration at 36 h [1]: 0.054 ng/mL
concentration at 0 h (male, human, plasma, inhaled, 1000 μg, healthy male subjects, single 1000 μg inhale, N = 16): < 0.05 ng/mL
concentration at 0.25 h [2]: 0.0628 ng/mL
concentration at 0.5 h [2]: 0.316 ng/mL
concentration at 0.75 h [2]: 0.622 ng/mL
concentration at 1 h [2]: 0.869 ng/mL
concentration at 1.5 h [2]: 1.16 ng/mL
concentration at 2 h [2]: 1.2 ng/mL
concentration at 2.5 h [2]: 1.18 ng/mL
concentration at 3 h [2]: 1.07 ng/mL
concentration at 4 h [2]: 0.927 ng/mL
concentration at 6 h [2]: 0.583 ng/mL
concentration at 8 h [2]: 0.415 ng/mL
concentration at 12 h [2]: 0.25 ng/mL
concentration at 15 h [2]: 0.181 ng/mL
concentration at 24 h [2]: 0.106 ng/mL
concentration at 28 h [2]: 0.0793 ng/mL
concentration at 32 h [2]: 0.0698 ng/mL
concentration at 36 h [2]: 0.058 ng/mL
concentration at 0 h (male, human, plasma, iv, 100 μg, healthy male subjects, 100 μg IV infusion over 2 h, N = 15): < 0.05 ng/mL
concentration at 0.25 h [3]: 1.76 ng/mL
concentration at 0.5 h [3]: 2.52 ng/mL
concentration at 0.75 h [3]: 2.68 ng/mL
concentration at 1 h [3]: 2.99 ng/mL
concentration at 1.5 h [3]: 3.15 ng/mL
concentration at 2 h [3]: 3.07 ng/mL
concentration at 2.083 h (male, human, plasma, iv, 100 μg, healthy male subjects, 100 μg IV infusion over 2 h, N = 15, 2.083 h after dose, read-out: Geometric mean of plasma concentrations): 2.57 ng/mL
concentration at 2.25 h (male, human, plasma, iv, 100 μg, healthy male subjects, 100 μg IV infusion over 2 h, N = 15, 2.25 h after dose, read-out: Geometric mean of plasma concentrations): 1.42 ng/mL
concentration at 2.5 h [3]: 0.559 ng/mL
concentration at 2.75 h (male, human, plasma, iv, 100 μg, healthy male subjects, 100 μg IV infusion over 2 h, N = 15, 2.75 h after dose, read-out: Geometric mean of plasma concentrations): 0.264 ng/mL
concentration at 3 h [3]: 0.132 ng/mL
concentration at 0 h (male, human, plasma, po, 1000 μg, healthy male subjects, single 1000 μg oral, N = 16): < 0.05 ng/mL
concentration at 0.25 h [4]: 0.777 ng/mL
concentration at 0.5 h [4]: 3.64 ng/mL
concentration at 0.75 h [4]: 5.28 ng/mL
concentration at 1 h [4]: 5.68 ng/mL
concentration at 1.5 h [4]: 4.69 ng/mL
concentration at 2 h [4]: 3.32 ng/mL
concentration at 2.5 h [4]: 2.26 ng/mL
concentration at 3 h [4]: 1.6 ng/mL
concentration at 4 h [4]: 1.01 ng/mL
concentration at 6 h [4]: 0.424 ng/mL
concentration at 8 h [4]: 0.233 ng/mL
concentration at 12 h [4]: 0.126 ng/mL
concentration at 15 h [4]: 0.0714 ng/mL
